Assay results taken from paper PMC11357638 (Molecules, 2024).

What was measured:
hTRPV3 F666A mutant = biological target: T1, hTRPV3 F666A mutant (Homo sapiens, UniProt Q8NET8, F666A); test: cell-based
T1 sequence (Q8NET8 1-790 F666A): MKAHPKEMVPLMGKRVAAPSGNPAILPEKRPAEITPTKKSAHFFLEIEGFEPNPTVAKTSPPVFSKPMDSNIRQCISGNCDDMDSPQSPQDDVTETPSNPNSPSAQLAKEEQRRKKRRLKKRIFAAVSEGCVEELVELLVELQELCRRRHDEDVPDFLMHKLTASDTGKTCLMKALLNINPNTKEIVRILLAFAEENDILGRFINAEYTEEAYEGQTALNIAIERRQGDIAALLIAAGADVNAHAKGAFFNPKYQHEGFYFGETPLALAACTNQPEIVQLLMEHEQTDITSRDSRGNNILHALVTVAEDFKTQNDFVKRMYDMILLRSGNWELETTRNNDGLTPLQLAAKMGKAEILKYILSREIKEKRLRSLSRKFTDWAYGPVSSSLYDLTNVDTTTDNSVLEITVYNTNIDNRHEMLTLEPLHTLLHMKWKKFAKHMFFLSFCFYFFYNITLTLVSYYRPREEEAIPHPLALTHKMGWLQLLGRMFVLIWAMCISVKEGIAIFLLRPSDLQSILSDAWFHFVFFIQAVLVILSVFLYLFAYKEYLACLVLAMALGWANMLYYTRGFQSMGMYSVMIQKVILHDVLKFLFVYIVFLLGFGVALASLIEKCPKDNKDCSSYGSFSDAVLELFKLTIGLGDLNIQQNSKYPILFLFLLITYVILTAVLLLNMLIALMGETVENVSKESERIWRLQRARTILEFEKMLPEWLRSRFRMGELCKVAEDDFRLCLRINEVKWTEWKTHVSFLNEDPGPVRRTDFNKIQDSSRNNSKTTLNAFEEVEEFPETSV

[1] = biological target: T2, human TRPV4 (hTRPV4) channels (Homo sapiens, UniProt Q9HBA0); test: Whole-cell patch-clamp selectivity, hTRPV4 in HEK293T cells; assay type: cell-based; settings: HEK-293T; 1000 μM CA, current caused by 0.1 μM GSK1016790A, mean ± SD, n = 5
T2 construct: expressed in transfected cells; host or cells: HEK293T
T2 sequence (Q9HBA0 whole entry): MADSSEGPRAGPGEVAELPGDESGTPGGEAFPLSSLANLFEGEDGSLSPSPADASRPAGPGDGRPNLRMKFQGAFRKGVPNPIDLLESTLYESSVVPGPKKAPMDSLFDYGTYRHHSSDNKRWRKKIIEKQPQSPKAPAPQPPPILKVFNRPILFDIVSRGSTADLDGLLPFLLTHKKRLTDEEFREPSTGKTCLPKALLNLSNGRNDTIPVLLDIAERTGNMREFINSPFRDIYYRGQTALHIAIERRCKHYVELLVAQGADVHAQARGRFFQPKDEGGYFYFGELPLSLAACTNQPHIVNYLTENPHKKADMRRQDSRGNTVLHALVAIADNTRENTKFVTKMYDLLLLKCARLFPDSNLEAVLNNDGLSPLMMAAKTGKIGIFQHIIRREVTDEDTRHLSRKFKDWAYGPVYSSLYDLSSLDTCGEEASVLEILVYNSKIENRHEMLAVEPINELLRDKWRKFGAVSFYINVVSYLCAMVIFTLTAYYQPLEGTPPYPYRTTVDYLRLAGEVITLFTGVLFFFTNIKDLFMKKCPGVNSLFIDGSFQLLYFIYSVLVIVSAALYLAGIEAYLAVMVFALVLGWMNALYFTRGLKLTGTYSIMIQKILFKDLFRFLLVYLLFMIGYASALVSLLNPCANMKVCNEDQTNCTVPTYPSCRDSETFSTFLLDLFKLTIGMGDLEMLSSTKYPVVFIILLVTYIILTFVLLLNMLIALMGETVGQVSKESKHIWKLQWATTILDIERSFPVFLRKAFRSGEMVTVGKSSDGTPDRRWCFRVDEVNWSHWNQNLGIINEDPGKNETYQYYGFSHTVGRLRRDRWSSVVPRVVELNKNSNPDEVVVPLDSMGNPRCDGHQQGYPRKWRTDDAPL

- IC50 (hTRPV3 F666A mutant): 105 ± 4.8 µM
- inhibition at 1000 µM [1]: ~4.6%
SMILES: O=C(O)/C=C/c1ccc(O)c(O)c1 [CA, caffeic acid]
